Data published in patent publication US9833497B2, “Human originated EGF domain proteins and use of the same” (CHENGDU SOURCEBIO LIMITED-LIABILITY COMPANY, priority 2013, dated 2017).

Legend:
Assay type in all cases: cell-based
Klebsiella pneumonia = assay: MIC against Gram-negative bacteria: Klebsiella pneumonia; conditions: for MIC K. pneumonia: two-fold serial dilution
Description: (§1) 1. Gram-negative bacteria, such as E. coli BL21, Pseudomonas aeruginosa, Klebsiella pneumonia, Enterobacter cloacae, Aeromonas hydrophila, Citrobacter diversus, Moraxella catarrhalis, Proteus mirabilis, Proteus vulgaris, Serratia marcescens, etc were streaked on solid LB medium and cultured respectively. Then, typical clones were picked, inoculated into common liquid LB medium respectively, and cultured at 37° C. with shaking at 185 rpm until the McFarland specific turbidity was 0.5. The bacterial culture of each of Gram-negative bacteria was centrifuged at 4000×g for 3 min, the supernatant was discarded, and the thalli were resuspended with fresh LB medium.
(§2) 2. The above-mentioned bacterial suspensions were diluted and inoculated into 96-well plates with the final concentration of the bacterial suspension being 5×10^5 CFU/mL per well.
(§3) 3. Each of the purified human-originated EGF domain proteins (PRT1 to PRT1498 in Table 1) was added to each of the above wells and subjected to two-fold serial dilution in concentration. Three parallel wells were set up for each concentration in the gradient.
(§4) 4. The above-mentioned 96-well plates were placed and cultured at 37° C. in shaking incubator shaking at 175 rpm. […] The minimal inhibitory concentration MIC is defined as the lowest concentration of the recombinant protein at which there is no growth of the bacteria.

Citrobacter diversus = assay: MIC against Gram-negative bacteria: Citrobacter diversus; conditions: for MIC C. diversus: two-fold serial dilution
Description: as §1, §2, §3, §4

Enterobacter cloacae = assay: MIC against Gram-negative bacteria: Enterobacter cloacae; conditions: for MIC E. cloacae: two-fold serial dilution
Description: as §1, §2, §3, §4

Pseudomonas aeruginosa = assay: MIC against Gram-negative bacteria: Pseudomonas aeruginosa; conditions: for MIC P. aeruginosa: two-fold serial dilution
Description: as §1, §2, §3, §4

Aeromonas hydrophila = assay: MIC against Gram-negative bacteria: Aeromonas hydrophila; conditions: for MIC A. hydrophila: two-fold serial dilution
Description: as §1, §2, §3, §4

Moraxella catarrhalis = assay: MIC against Gram-negative bacteria: Moraxella catarrhalis; conditions: for MIC M. catarrhalis: two-fold serial dilution
Description: as §1, §2, §3, §4

Proteus mirabilis = assay: MIC against Gram-negative bacteria: Proteus mirabilis; conditions: for MIC P. mirabilis: two-fold serial dilution
Description: as §1, §2, §3, §4

E. coli BL21 = assay: MIC against Gram-negative bacteria: E. coli BL21; conditions: for MIC E. coli BL21: two-fold serial dilution
Description: as §1, §2, §3, §4

Proteus vulgaris = assay: MIC against Gram-negative bacteria: Proteus vulgaris; conditions: for MIC P. vulgaris: two-fold serial dilution
Description: as §1, §2, §3, §4

E. coli DH5α = assay: Antibacterial activity: MIC and growth curve against E. coli DH5α in 96-well plate; conditions: minimal inhibitory concentration against E. coli DH5α; 96-well plate, 5×10^5 CFU/mL, 37° C., judged after 8 h
Description: 1. E. coli DH5α was exemplified. E. coli DH5α was streaked and cultured on LB solid medium. Then, a typical clone was picked and inoculated into common LB liquid medium, cultured at 37° C. with shaking at 185 rpm until the logarithmic growth phase was reached (OD600 of about 0.5). The bacterial culture was centrifuged at 4000×g for 3 min, the supernatant was discarded, and the thalli were resuspended with fresh LB medium.
2. The above-mentioned bacterial suspension was diluted and inoculated into a 96-well plate with the total volume of 100 μL per well and a bacterial count of 5×10^5 CFU/mL.
3. The recombinant protein hF VII-EGF1 was added to the above-mentioned wells with the final protein concentration in the well of the highest protein concentration being 50 μg/mL. Basing on this final concentration, a two-fold serial dilution was performed till a protein concentration gradient consisting of 50, 25, and 12.5 μg/mL was set up. Three parallel wells were set up for each concentration in the gradient.
as §4, with “plate was” for “plates were”, “rpm. Samples were taken every 30 min, the absorbance values were determined at 600 nm wavelength under a ultra violet spectrophotometer, and an inhibition curve was plotted.” for “rpm.”
According to the experimental procedures in Example 14, the minimal inhibitory concentrations (MIC, μg/mL) of the other human-originated EGF domain proteins (PRT2 to PRT1498 in Table 1) for E. coli DH5α were determined.

Serratia marcescens = assay: MIC against Gram-negative bacteria: Serratia marcescens; conditions: for MIC S. marcescens: two-fold serial dilution
Description: as §1, §2, §3, §4

[1] = 10 h cultivation at 37° C., 5×10^5 CFU/mL
[2] = K. pneumonia, 10 h cultivation at 37° C.
[3] = C. diversus, 10 h cultivation at 37° C.
[4] = E. cloacae, 10 h cultivation at 37° C.
[5] = P. aeruginosa, 10 h cultivation at 37° C.
[6] = A. hydrophila, 10 h cultivation at 37° C.
[7] = M. catarrhalis, 10 h cultivation at 37° C.
[8] = P. mirabilis, 10 h cultivation at 37° C.
[9] = E. coli BL21, 10 h cultivation at 37° C.
[10] = P. vulgaris, 10 h cultivation at 37° C.
[11] = S. marcescens, 10 h cultivation at 37° C.

Substance: PRT1177 (DANECEAKPCVNAKSCKNLIASYYCDCLPGWMGQNCD; listed as Homo sapiens)
- MIC K. pneumonia (Klebsiella pneumonia; [1]): 12.5 µg/mL
- MIC C. diversus (Citrobacter diversus; [1]): 50 µg/mL
- MIC E. cloacae (Enterobacter cloacae; [1]): 50 µg/mL
- MIC P. aeruginosa (Pseudomonas aeruginosa; [1]): 50 µg/mL
- MIC A. hydrophila (Aeromonas hydrophila; [1]): 12.5 µg/mL
- MIC M. catarrhalis (Moraxella catarrhalis; [1]): 12.5 µg/mL
- MIC P. mirabilis (Proteus mirabilis; [1]): 50 µg/mL
- MIC E. coli BL21 (E. coli BL21; [1]): 12.5 µg/mL
- MIC P. vulgaris (Proteus vulgaris; [1]): 12.5 µg/mL
- MIC (E. coli DH5α): 50 µg/mL
- MIC S. marcescens (Serratia marcescens; [1]): 25 µg/mL

Substance: PRT149 (LSNICLSHPCLNGQCIDTVSGYFCKCDSGWTGVNCT; listed as Homo sapiens)
- MIC (μg/mL) K. pneumonia (Klebsiella pneumonia; K. pneumonia, 10 h cultivation at 37° C., 5×10^5 CFU/mL): 25 µg/mL
- MIC (μg/mL) C. diversus (Citrobacter diversus; C. diversus, 10 h cultivation at 37° C., 5×10^5 CFU/mL): 12.5 µg/mL
- MIC (μg/mL) E. cloacae (Enterobacter cloacae; E. cloacae, 10 h cultivation at 37° C., 5×10^5 CFU/mL): 12.5 µg/mL
- MIC (μg/mL) P. aeruginosa (Pseudomonas aeruginosa; P. aeruginosa, 10 h cultivation at 37° C., 5×10^5 CFU/mL): 12.5 µg/mL
- MIC (μg/mL) A. hydrophila (Aeromonas hydrophila; A. hydrophila, 10 h cultivation at 37° C., 5×10^5 CFU/mL): 25 µg/mL
- MIC (μg/mL) M. catarrhalis (Moraxella catarrhalis; M. catarrhalis, 10 h cultivation at 37° C., 5×10^5 CFU/mL): 25 µg/mL
- MIC (μg/mL) P. mirabilis (Proteus mirabilis; P. mirabilis, 10 h cultivation at 37° C., 5×10^5 CFU/mL): 12.5 µg/mL
- MIC (μg/mL) E. coli BL21 (E. coli BL21; E. coli BL21, 10 h cultivation at 37° C., 5×10^5 CFU/mL): 12.5 µg/mL
- MIC (μg/mL) P. vulgaris (Proteus vulgaris; P. vulgaris, 10 h cultivation at 37° C., 5×10^5 CFU/mL): 12.5 µg/mL
- MIC (E. coli DH5α): 12.5 µg/mL
- MIC (μg/mL) S. marcescens (Serratia marcescens; S. marcescens, 10 h cultivation at 37° C., 5×10^5 CFU/mL): 12.5 µg/mL

Substance: PRT1234 (LASGCPWMCSGRGICDAGRCVCDRGFGGPYCV; listed as Homo sapiens)
- MIC against K. pneumonia (Klebsiella pneumonia; Klebsiella pneumonia, 96-well plate, 5×10^5 CFU/mL, 37° C., 10 h): 25 µg/mL
- MIC against C. diversus (Citrobacter diversus; Citrobacter diversus, 96-well plate, 5×10^5 CFU/mL, 37° C., 10 h): 25 µg/mL
- MIC against E. cloacae (Enterobacter cloacae; Enterobacter cloacae, 96-well plate, 5×10^5 CFU/mL, 37° C., 10 h): 50 µg/mL
- MIC against P. aeruginosa (Pseudomonas aeruginosa; Pseudomonas aeruginosa, 96-well plate, 5×10^5 CFU/mL, 37° C., 10 h): 12.5 µg/mL
- MIC against A. hydrophila (Aeromonas hydrophila; Aeromonas hydrophila, 96-well plate, 5×10^5 CFU/mL, 37° C., 10 h): 25 µg/mL
- MIC against M. catarrhalis (Moraxella catarrhalis; Moraxella catarrhalis, 96-well plate, 5×10^5 CFU/mL, 37° C., 10 h): 25 µg/mL
- MIC against P. mirabilis (Proteus mirabilis; Proteus mirabilis, 96-well plate, 5×10^5 CFU/mL, 37° C., 10 h): 25 µg/mL
- MIC against E. coli BL21 (E. coli BL21; E. coli BL21, 96-well plate, 5×10^5 CFU/mL, 37° C., 10 h): 50 µg/mL
- MIC against P. vulgaris (Proteus vulgaris; Proteus vulgaris, 96-well plate, 5×10^5 CFU/mL, 37° C., 10 h): 12.5 µg/mL
- MIC (E. coli DH5α): 25 µg/mL
- MIC against S. marcescens (Serratia marcescens; Serratia marcescens, 96-well plate, 5×10^5 CFU/mL, 37° C., 10 h): 25 µg/mL

Substance: PRT1039 (SSGICDEASCIHGGTCTAIKADSYICLCPLGFKGRHCE; listed as Homo sapiens)
- MIC (Klebsiella pneumonia; [2]): 12.5 µg/mL
- MIC (Citrobacter diversus; [3]): 50 µg/mL
- MIC (Enterobacter cloacae; [4]): 25 µg/mL
- MIC (Pseudomonas aeruginosa; [5]): 50 µg/mL
- MIC (Aeromonas hydrophila; [6]): 50 µg/mL
- MIC (Moraxella catarrhalis; [7]): 12.5 µg/mL
- MIC (Proteus mirabilis; [8]): 50 µg/mL
- MIC (E. coli BL21; [9]): 50 µg/mL
- MIC (Proteus vulgaris; [10]): 12.5 µg/mL
- MIC (E. coli DH5α): 50 µg/mL
- MIC (Serratia marcescens; [11]): 50 µg/mL

Substance: PRT938 (DIDDCLANPCQNGGSCMDGVNTFSCLCLPGFTGDKCQ; listed as Homo sapiens)
- MIC (Klebsiella pneumonia; [2]): 12.5 µg/mL
- MIC (Citrobacter diversus; [3]): 12.5 µg/mL
- MIC (Enterobacter cloacae; [4]): 25 µg/mL
- MIC (Pseudomonas aeruginosa; [5]): 25 µg/mL
- MIC (Aeromonas hydrophila; [6]): 50 µg/mL
- MIC (Moraxella catarrhalis; [7]): 50 µg/mL
- MIC (Proteus mirabilis; [8]): 12.5 µg/mL
- MIC (E. coli BL21; [9]): 50 µg/mL
- MIC (Proteus vulgaris; [10]): 50 µg/mL
- MIC (E. coli DH5α): 12.5 µg/mL
- MIC (Serratia marcescens; [11]): 12.5 µg/mL

Substance: PRT1162 (DIDDCILNACEHNSTCKDLHLSYQCVCLSDWEGNFCE; listed as Homo sapiens)
- MIC K. pneumonia (Klebsiella pneumonia; [1]): 50 µg/mL
- MIC C. diversus (Citrobacter diversus; [1]): 25 µg/mL
- MIC E. cloacae (Enterobacter cloacae; [1]): 12.5 µg/mL
- MIC P. aeruginosa (Pseudomonas aeruginosa; [1]): 12.5 µg/mL
- MIC A. hydrophila (Aeromonas hydrophila; [1]): 50 µg/mL
- MIC M. catarrhalis (Moraxella catarrhalis; [1]): 12.5 µg/mL
- MIC P. mirabilis (Proteus mirabilis; [1]): 25 µg/mL
- MIC E. coli BL21 (E. coli BL21; [1]): 50 µg/mL
- MIC P. vulgaris (Proteus vulgaris; [1]): 50 µg/mL
- MIC (E. coli DH5α): 12.5 µg/mL
- MIC S. marcescens (Serratia marcescens; [1]): 25 µg/mL
